According to ChEMBL document CHEMBL1139055, “Structure-activity relationships of pentacycloundecylamines at the N-methyl-d-aspartate receptor” (Bioorg Med Chem, 2007):
Calls of active or inactive are those of the source. The calls are words filed in the database; no cut-off is given here.

Columns and labels:
[1] = Antagonist activity at NMDA receptor in ICR mouse synaptoneurosome assessed as inhibition of NMDA/Gly-mediated 45-calcium influx; format: functional
[2] = Antagonist activity at NMDA receptor in ICR mouse synaptoneurosome assessed as inhibition of NMDA/Gly-mediated 45-calcium influx at 2 uM relative to control; format: functional
[3] = species: Mus musculus; experiment: Displacement of [3H]MK-801 from NMDA receptor in ICR mouse synaptoneurosome at 100 uM
[4] = species: Mus musculus; experiment: Displacement of [3H]TCP from NMDA receptor in ICR mouse synaptoneurosome at 100 uM
[5] = species: Mus musculus; experiment: Displacement of [3H]glutamate from NMDA receptor in ICR mouse synaptoneurosome

Work on `COc1cccc(CNC23OC4C5C6CC(C7C6C4C72)C53)c1` (configuration not stated) yielded an IC50 [1] of 20.7 µM.

In the case of `c1ccc(CNC23OC4C5C6CC(C7C6C4C72)C53)cc1` (configuration not stated), the IC50 [1] is reported as 2.98 µM, the Inhibition [2] is reported as 108.9% and the Activity [3] is reported as “inactive”. The Activity [4] was 20% and the Activity [5] was “inactive”.

With `c1ccc(CCNC23OC4C5C6CC(C7C6C4C72)C53)cc1` (configuration not stated) the IC50 [1] was 23.5 µM, the Activity [3] was “inactive” and the Activity [4] was 44%.

Compound `CC12CC3CC(C)(C1)CC(N)(C3)C2` [MEMANTINE] has an IC50 [1] of 3.05 µM, an Activity [3] of 90% and an Activity [4] of 67%.

In the case of `NC1C2C3CC4C1C1C2CC3C41` (configuration not stated), the IC50 [1] is reported as 4.06 µM, the Activity [3] is reported as “inactive” and the Activity [4] is reported as “inactive”. The Activity [5] was “inactive”.

`O=[N+]([O-])c1cccc(CNC23OC4C5C6CC(C7C6C4C72)C53)c1` (configuration not stated) gave an IC50 [1] of 32.8 µM.

In the case of `O=[N+]([O-])c1ccccc1CNC12OC3C4C5CC(C6C5C3C61)C42` (configuration not stated), the IC50 [1] is reported as 37.6 µM.

With `OC12CC3C4C5CC6C4C3C1C(NCc1ccccc1)C6C52` (configuration not stated) the IC50 [1] was 36.2 µM.

In the case of `C[C@]12N[C@H](Cc3ccccc31)c1ccccc12` [DIZOCILPINE], the IC50 [1] is reported as 1.23 µM, the Activity [3] is reported as 73% and the Activity [4] is reported as 65%.
